In ChEMBL document CHEMBL2073940, “Vinblastine and sulfinpyrazone export by the multidrug resistance protein MRP2 is associated with glutathione export” (Br J Cancer, 2000):
Each block holds one compound with its values, some of them ahead of it.

What was measured:
Type in all cases: functional, cell-based
Conditions in all cases: dog, mdck-ii
[1] = target: T1, Multidrug resistance-associated protein 1 (Homo sapiens, UniProt P33527); assay: TP_TRANSPORTER: inhibition of Glutathione efflux (Indomethacin: 400 uM) in MRP1-expressing MDCKII cells
[2] = target: T1, Multidrug resistance-associated protein 1; assay: TP_TRANSPORTER: inhibition of Glutathione efflux (Benzbromarone: 25 uM) in MRP1-expressing MDCKII cells
[3] = target: T1, Multidrug resistance-associated protein 1; assay: TP_TRANSPORTER: inhibition of Glutathione efflux (Sulfinpyrazone: 3200. uM) in MRP1-expressing MDCKII cells
[4] = target: ATP-binding cassette sub-family C member 2 (Homo sapiens, UniProt Q92887); assay: TP_TRANSPORTER: transepithelial transport (basal to apical) in MRP2-expressing MDCKII cells
ATP-binding cassette sub-family C member 2, sequence (Q92887 whole entry): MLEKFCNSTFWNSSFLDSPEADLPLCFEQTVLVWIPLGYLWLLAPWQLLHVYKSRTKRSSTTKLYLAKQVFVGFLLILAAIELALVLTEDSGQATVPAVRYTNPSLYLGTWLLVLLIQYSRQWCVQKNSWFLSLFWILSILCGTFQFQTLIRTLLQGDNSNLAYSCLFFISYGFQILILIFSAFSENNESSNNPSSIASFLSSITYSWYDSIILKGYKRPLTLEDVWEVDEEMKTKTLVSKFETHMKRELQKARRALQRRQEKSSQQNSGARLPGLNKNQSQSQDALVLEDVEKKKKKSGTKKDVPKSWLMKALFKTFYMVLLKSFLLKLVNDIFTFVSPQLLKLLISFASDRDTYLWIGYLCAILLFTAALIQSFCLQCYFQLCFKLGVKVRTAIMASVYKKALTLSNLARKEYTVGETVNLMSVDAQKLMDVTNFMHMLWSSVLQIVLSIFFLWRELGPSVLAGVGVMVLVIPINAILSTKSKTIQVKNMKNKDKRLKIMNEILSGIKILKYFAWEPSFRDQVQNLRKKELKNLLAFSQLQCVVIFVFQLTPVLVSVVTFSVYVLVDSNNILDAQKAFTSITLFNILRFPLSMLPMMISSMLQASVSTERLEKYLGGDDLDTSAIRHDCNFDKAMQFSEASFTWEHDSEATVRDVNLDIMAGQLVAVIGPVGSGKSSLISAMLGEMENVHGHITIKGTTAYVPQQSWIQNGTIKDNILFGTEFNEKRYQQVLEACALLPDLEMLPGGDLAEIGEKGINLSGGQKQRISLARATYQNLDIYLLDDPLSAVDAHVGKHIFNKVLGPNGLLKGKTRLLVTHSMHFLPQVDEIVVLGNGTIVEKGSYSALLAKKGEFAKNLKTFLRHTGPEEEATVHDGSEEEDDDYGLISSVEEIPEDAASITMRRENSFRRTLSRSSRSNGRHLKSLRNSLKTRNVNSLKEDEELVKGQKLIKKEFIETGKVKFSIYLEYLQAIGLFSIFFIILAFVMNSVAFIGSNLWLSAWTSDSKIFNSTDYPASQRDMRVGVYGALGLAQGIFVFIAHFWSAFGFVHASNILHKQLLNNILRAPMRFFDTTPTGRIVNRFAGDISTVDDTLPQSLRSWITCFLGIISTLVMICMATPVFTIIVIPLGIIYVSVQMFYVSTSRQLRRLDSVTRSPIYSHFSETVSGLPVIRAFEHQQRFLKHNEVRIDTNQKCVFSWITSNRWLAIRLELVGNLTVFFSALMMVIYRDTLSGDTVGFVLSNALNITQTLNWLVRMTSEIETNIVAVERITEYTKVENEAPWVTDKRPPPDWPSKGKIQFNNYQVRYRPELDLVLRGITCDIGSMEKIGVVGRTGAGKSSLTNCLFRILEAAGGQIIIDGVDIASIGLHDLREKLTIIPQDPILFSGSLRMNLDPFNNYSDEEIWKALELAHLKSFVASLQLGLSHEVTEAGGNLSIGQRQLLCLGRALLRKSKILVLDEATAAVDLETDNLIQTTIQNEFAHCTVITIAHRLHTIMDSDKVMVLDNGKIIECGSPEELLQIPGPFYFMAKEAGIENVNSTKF

T1 sequence (P33527 whole entry): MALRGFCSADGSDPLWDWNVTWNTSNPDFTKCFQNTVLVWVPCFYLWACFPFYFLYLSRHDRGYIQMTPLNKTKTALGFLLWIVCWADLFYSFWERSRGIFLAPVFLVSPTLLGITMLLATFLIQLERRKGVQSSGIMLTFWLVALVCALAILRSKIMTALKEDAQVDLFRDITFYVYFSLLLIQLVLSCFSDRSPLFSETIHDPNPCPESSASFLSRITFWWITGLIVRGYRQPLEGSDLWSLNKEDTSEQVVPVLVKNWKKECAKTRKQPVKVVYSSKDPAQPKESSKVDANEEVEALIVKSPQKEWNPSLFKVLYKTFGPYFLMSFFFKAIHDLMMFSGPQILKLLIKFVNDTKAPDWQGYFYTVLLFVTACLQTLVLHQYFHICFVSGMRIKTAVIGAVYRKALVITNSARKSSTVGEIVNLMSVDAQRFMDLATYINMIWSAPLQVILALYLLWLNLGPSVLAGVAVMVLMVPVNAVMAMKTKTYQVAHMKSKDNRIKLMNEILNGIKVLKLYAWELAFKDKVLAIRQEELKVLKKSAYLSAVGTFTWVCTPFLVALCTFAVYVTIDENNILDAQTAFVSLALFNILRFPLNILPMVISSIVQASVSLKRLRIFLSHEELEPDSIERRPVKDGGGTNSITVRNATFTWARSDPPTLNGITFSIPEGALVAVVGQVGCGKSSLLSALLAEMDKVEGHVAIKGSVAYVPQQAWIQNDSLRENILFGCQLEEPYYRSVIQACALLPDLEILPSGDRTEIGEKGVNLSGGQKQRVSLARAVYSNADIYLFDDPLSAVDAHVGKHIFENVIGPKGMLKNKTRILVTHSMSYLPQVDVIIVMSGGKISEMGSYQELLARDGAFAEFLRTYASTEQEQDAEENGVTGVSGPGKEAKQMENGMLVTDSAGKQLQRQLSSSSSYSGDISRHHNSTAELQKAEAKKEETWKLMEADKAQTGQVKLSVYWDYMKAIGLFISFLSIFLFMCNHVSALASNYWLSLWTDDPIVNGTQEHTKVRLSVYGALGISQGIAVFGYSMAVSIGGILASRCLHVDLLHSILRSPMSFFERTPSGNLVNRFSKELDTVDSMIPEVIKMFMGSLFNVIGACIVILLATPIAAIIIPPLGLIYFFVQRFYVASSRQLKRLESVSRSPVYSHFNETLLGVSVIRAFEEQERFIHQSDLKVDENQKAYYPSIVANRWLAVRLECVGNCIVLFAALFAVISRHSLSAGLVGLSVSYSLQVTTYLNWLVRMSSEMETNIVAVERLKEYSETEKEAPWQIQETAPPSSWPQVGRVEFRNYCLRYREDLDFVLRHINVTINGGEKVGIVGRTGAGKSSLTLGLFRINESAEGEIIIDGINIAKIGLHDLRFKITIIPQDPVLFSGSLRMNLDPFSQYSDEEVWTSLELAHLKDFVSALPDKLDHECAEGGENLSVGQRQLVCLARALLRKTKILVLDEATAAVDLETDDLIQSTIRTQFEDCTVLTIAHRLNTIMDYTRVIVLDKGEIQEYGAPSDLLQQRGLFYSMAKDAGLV

- Activity [1]: inhibitor [+]
Compound: COc1ccc2c(c1)c(CC(=O)O)c(C)n2C(=O)c1ccc(Cl)cc1 [INDOMETHACIN]

- Activity [2]: inhibitor [+]
Compound: CCc1oc2ccccc2c1C(=O)c1cc(Br)c(O)c(Br)c1 [BENZBROMARONE]

- Activity [3]: inhibitor [+]
- Activity [4]: substrate [+]
Compound: O=C1C(CC[S+]([O-])c2ccccc2)C(=O)N(c2ccccc2)N1c1ccccc1 (centres undefined) [SULFINPYRAZONE]
